# Source: patent publication US20250213547A1, “METHODS OF TREATING NEUROLOGICAL DISEASES” (priority 2022, published 2025)
# Values joined by “and” are separate entries in the source; they are usually repeats but may differ in a detail not shown here. Identical values can stand only once. Like-named read-outs stand apart in the source and are kept apart here.
# Key:
# clinical = details: human, in vivo, 300 mg
# From the text: This study included nine patients in a three-sequence regimen altering fed state and formulation.
# Aside from differences in a few selected time points, PK data collection procedures and analyses are similar to example 2.
# [1] = Healthy Japanese subjects, Part 2 (100, 200, 300 mg BID up-titration): PK of TAK-935 and M-I; assay type: in vivo, human; details: for AUlast/D (dose-normalized): mean (% CV); for Cmax: read-out: Cmax; for Vd/F: read-out: Vz/F
# Experimental: This study consisted of 2 parts, and was a randomized, double-blind, placebo-controlled study to assess safety, tolerability, and PK and PD of TAK-935 when administered orally in healthy Japanese subjects.
# TAK-935 or placebo was administered to the 9 subjects at the dose of 100 mg BID from Day 1 to Day 7, then 200 mg BID from Day 8 to Day 14, and finally 300 mg BID from Day 15 to Day 21, and safety, PK and PD were investigated. The planned dose levels of TAK-935 to be evaluated are outlined in Table 40a.
# After the screening visit, eligible participants checked—in on Day-2. On Day 1, eligible participants were randomized 6:3 to TAK-935 or placebo in double-blinded fashion. No stratification variables were used for randomization. Study drug was administered every day by oral administration of multiple dosing with up-titration of TAK-935 to 9 subjects firstly at 100 mg BID from Day 1 to Day 7, then at 200 mg BID from Day 8 to Day 14, and finally at 300 mg BID from Day 15 to Day 21, successively. The subjects were discharged on Day 24. Intensive PK samplings were performed on Day 1, Day 7, Day 14 and Day 21.
# Subjects received multiple oral doses of TAK-935 or placebo escalating from 100 mg BID, 200 mg BID, and then to 300 mg BID with 150 mL of water for 7 days per each dose level. For the morning dose, subjects were kept fasted for at least 8 hours before administration and up to 2 hours after administration. The evening dose was administered at any time between 8 hours and 12 hours after the morning dose, but prior to the evening meal except for Days 1, 7, 14, and 21. On Days 1, 7, 14, and 21, the evening dose was administered 12 hours after the morning dose and prior to the evening meal. • Identity of Study Drugs • Study drug refers to TAK-935 100 mg tablet and matching placebo. • Compound: Code name: TAK-935 • Dosage forms: TAK-935 100 mg tablets and matching placebo tablets were used in this study. The TAK-935 tablets and placebo tablets were yellow-red film-coated tablets for oral administration.
# Blood samples for PK analysis of TAK-935 and its metabolites (M-I) were collected into blood collection tubes (vacutainer) containing the anticoagulant K2EDTA (Table 40e and Table 40f).
# The PK parameters of TAK-935 and its metabolites (M-I) were determined from the concentration-time profiles for all evaluable subjects. Actual sampling times, rather than scheduled sampling times, were used in all computations involving sampling times. The following PK parameters were calculated from plasma concentrations of TAK-935 and its metabolites (M-I), unless otherwise specified: […]
# [2] = Day 1 (100 mg BID), Part 2, Median
# [3] = Day 1, TAK-935 100 mg BID, plasma, mean
# [4] = Day 7 (100 mg BID), Part 2, Median
# [5] = Day 7, TAK-935 100 mg BID, plasma, mean
# [6] = Day 14 (200 mg BID), Part 2, Median
# [7] = Day 14, TAK-935 200 mg BID, plasma, mean
# [8] = Day 21 (300 mg BID), Part 2, Median
# [9] = Day 21, TAK-935 300 mg BID, plasma, mean
# [10] = human, plasma, oral, 100 mg, Day 1 (100 mg BID), Part 2, Median
# [11] = human, plasma, oral, 100 mg, Day 1, TAK-935 100 mg BID, plasma, mean
structure (smiles),measurement,setting,value
O=C(c1cccnc1-c1ccncc1)N1CCC(O)(Cc2ccccc2)CC1 [soticlestat],"AUC∞ lower, tablet fed than fasting",clinical,10.6%
same,Tmax,clinical,31.8 min
same,"mean Cmax decrease, tablet fed compared to fasted",clinical,59.7%
same,AUC∞ lower with tablet compared with oral solution,clinical; po,15.8%
same,Cmax lower with tablet compared with oral solution,clinical; po,36.9%
same,Tmax,clinical; po,21 min
same,CL/F,[1]; [2],501.5 L/H
same,Lambda z,[1]; [2],0.2135 h⁻¹
same,T1/2z,[1]; [2],3.275 h
same,CL/F,[1]; [3],451.8 L/h
same,Lambda z,[1]; [3],0.2042 h⁻¹
same,CL/F,[1]; [4],443.0 L/H
same,Lambda z,[1]; [4],0.2180 h⁻¹
same,T1/2z,[1]; [4],3.270 h
same,CL/F,[1]; [5],551.8 L/h
same,Lambda z,[1]; [5],0.2325 h⁻¹
same,AUlast/D (dose-normalized),"[1]; Day 7, TAK-935 100 mg BID, plasma",2.238 (49.3) h*ng/mL/mg
same,CL/F,[1]; [6],254.0 L/H
same,Lambda z,[1]; [6],0.2685 h⁻¹
same,T1/2z,[1]; [6],2.575 h
same,CL/F,[1]; [7],276.7 L/h and 276.4 L/h
same,Lambda z,[1]; [7],0.2775 h⁻¹
same,AUlast/D (dose-normalized),"[1]; Day 14, TAK-935 200 mg BID, plasma",4.298 (44.9) h*ng/mL/mg
same,CL/F,[1]; [8],147.0 L/H
same,Lambda z,[1]; [8],0.3095 h⁻¹
same,T1/2z,[1]; [8],2.240 h
same,CL/F,[1]; [9],158.0 L/h
same,Lambda z,[1]; [9],0.2708 h⁻¹
same,AUlast/D (dose-normalized),"[1]; Day 21, TAK-935 300 mg BID, plasma",6.725 (25.2) h*ng/mL/mg
same,Mean t1/2z,"[1]; TAK-935, Day 1, 100 mg BID",5.988 h
same,Mean t1/2z,"[1]; TAK-935, Day 7, 100 mg BID",3.630 h
same,Mean t1/2z,"[1]; TAK-935, Day 14, 200 mg BID",2.620 h
same,Mean t1/2z,"[1]; TAK-935, Day 21, 300 mg BID",2.927 h
same,accumulation of Cmax and AUC,"[1]; TAK-935, multiple dose administration",< 6%
same,AUC,"[1]; human, plasma, oral, 100 mg, Day 1 (100 mg BID), Part 2, Geo Mean, read-out: AUC1ast",209 ng·h/mL
same,AUC,"[1]; human, plasma, oral, 100 mg, Day 1 (100 mg BID), Part 2, Geo Mean, read-out: AUCtau",209 ng·h/mL
same,Cmax,"[1]; human, plasma, oral, 100 mg, Day 1 (100 mg BID), Part 2, Geo Mean",201 ng/mL
same,Tmax,"[1]; human, plasma, oral, 100 mg, Day 1 (100 mg BID), Part 2, Mean, read-out: Tmax",52.5 min
same,AUC,"[1]; human, plasma, oral, 100 mg, Day 1 (100 mg BID), Part 2, Median, read-out: AUC1ast",160 ng·h/mL
same,AUC,"[1]; human, plasma, oral, 100 mg, Day 1 (100 mg BID), Part 2, Median, read-out: AUCtau",160 ng·h/mL
same,Cmax,[1]; [10],146 ng/mL
same,Vd/F,[1]; [10],2450 L
same,AUC(0-t),[1]; [11],232 ng·h/mL
same,AUC,"[1]; human, plasma, oral, 100 mg, Day 1, TAK-935 100 mg BID, plasma, mean, read-out: AUCτ (AUC during a dosing interval)",232 ng·h/mL
same,Cmax,[1]; [11],255 ng/mL
same,Vd/F,[1]; [11],4100 L
same,half-life,"[1]; human, plasma, oral, 100 mg, Day 1, TAK-935 100 mg BID, plasma, mean, read-out: t1/2z (terminal disposition phase half-life) (converted)",359 min
same,Tmax,"[1]; human, plasma, oral, 100 mg, Day 1, TAK-935 100 mg BID, plasma, median, read-out: tmax",45 min
same,AUC,"[1]; human, plasma, oral, 100 mg, Day 7 (100 mg BID), Part 2, Geo Mean, read-out: AUC1ast",201 ng·h/mL
same,AUC,"[1]; human, plasma, oral, 100 mg, Day 7 (100 mg BID), Part 2, Geo Mean, read-out: AUCtau",202 ng·h/mL
